Series [1] deals with T1, ovine COX-1 (Ovis aries, UniProt P05979).
T1 construct: purchased Cayman Chemical 700100
T1 sequence (P05979 25-600): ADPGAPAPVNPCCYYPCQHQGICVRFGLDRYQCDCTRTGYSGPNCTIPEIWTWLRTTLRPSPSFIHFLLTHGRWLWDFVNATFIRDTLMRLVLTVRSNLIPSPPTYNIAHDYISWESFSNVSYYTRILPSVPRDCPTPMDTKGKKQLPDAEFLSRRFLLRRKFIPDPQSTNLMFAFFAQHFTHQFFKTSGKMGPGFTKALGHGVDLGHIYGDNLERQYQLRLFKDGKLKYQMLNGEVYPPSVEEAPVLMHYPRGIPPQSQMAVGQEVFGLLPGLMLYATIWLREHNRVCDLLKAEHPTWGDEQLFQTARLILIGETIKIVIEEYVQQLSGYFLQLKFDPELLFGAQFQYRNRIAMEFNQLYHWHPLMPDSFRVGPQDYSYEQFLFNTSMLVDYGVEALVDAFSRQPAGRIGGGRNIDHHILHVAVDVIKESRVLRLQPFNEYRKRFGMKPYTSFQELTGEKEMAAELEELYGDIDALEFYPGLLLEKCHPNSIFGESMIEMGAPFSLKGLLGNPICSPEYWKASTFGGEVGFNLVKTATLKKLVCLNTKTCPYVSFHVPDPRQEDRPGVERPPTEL
In words: COX Fluorescent Inhibitor Screening Assay Kit (Cayman 700100), COX-1. It counts as biochemical. To be noted: values marked ** : compounds were screened at a concentration of 100 µM.

The nature of series [2]: Lipophilicity, logD7.4 by HPLC method (Donovan and Pescatore). In kind it is physicochemical. To be noted: HPLC column ODP-50 4B (Shodex Asahipak 50 × 4.6 mm); pH 7.4, HPLC system 2, MeOH/PBS gradient. As to the method: The lipophilicity of all synthesized compounds was determined as logD7.4HPLC value (Table 1) using an HPLC method originally described by Donovan and Pescatore.
Column chromatography was performed using silica gel (mesh size 40–63 µm). Thin-layer chromatography (TLC) was performed on silica gel F-254 aluminum plates and visualized using UV (254 nm/366 nm). Analytical HPLC analysis was carried out with the following systems: (system 1) Agilent 1200 HPLC (Santa Clara, CA, USA; pump G1311A, autosampler G1329A, column oven G1316A, degasser G1322A, UV detector G1315D, γ detector Gabi Star (Raytest), Luna C18 column (Phenomenex, 250 × 4.6 mm), flow rate = 1 mL/min, isocratic eluent (MeCN/0.1% TFA in H2O 70/30 (v/v)); (system 2) Agilent 1100 HPLC (Santa Clara, CA, USA; binary pump G1312A, autosampler G1313A, column oven G1316A, degasser G1322A, UV detector G1314A, γ detector Gabi Star (Raytest, Straubenhardt, Germany); column ODP-50 4B (Shodex Asahipak 50 × 4.6 mm); eluent: MeOH/PBS (10 mM, pH 7.4) gradient t0 min 30/70 - t25 min 95/5 - t27 min 95/5 - t28 min 30/70 - t40 min 30/70, flow rate = 0.6 mL/min; (system 3) waters UPLC I-Class (Milford, MA, USA; binary gradient pump BSM, autosampler FTN, column manager CM, and diode array detector PDAeλ coupled to Waters Xevo TQ-S), column Aquity UPLC® BEH C18 column (waters, 100 × 2.1 mm, 1.7 µm, 130 Å), eluent: (A): 0.1% acetic acid in MeCN/MeOH 1/1/(B): 0.1% acetic acid in H2O; flow rate 0.4 mL/min), gradient: t0 min 45/55 - t0.5 min 45/55 - t5.5 min 95/5 - t7.0 min 95/5 - t8.0 min 45/55 – t8.5 min 45/55; (system 4) column (Kinetex C-18 (Phenomenex 50 × 2.1 mm, 1.7 µm, 100 Å), Shimadzu Nexera X2 UHPLC system (Kyoto, Japan; degasser DGU-20A3R and DGU-20A5R, pump LC-30AD, autosampler SIL-30AC, column oven CTO-20AC with two column switching valves FCV-14AH, diode array detector SPD-M30A, γ detector Gabi Star (Raytest, Straubenhardt, Germany), communication bus module CBM-20A), eluent: (A): MeCN, (B): 0.1% trifluoroacetic acid in H2O; flow rate 0.5 mL/min), gradient: t0 min 25/75 - t0.3 min 25/75 - t4.0 min 75/25 - t4.5 min 95/5 - t5.5 min 95/5 - t6.0 min 25/75 – t7.5 min 25/75. The products were monitored by an UV detector at 254 nm and purity of all compounds exceeded 95% as determined by analytical HPLC analysis (system 1 or system 3), unless otherwise stated. Semi-preparative HPLC was performed using the following system: column (C-18 Jupiter Proteo (Phenomenex 250 × 21.1 mm, 4 µm, 90 Å), Shimadzu prominence modular HPLC system (Kyoto, Japan; degasser DGU-20A5R, 2× pump LC-20AR, autosampler SIL-20AC HT, column oven CTO-20AC with column switching valve, diode array detector SPD-M20A, fluorescence detector RF-20A, and fraction collector FRC-10A, communication bus module CBM-20A), isocratic eluent 0.1% TFA in MeCN/0.1% TFA in H2O 70/30, flow rate = 10 mL/min.
The logD7.4HPLC value was determined as previously reported by us utilizing an HPLC method originally described by Donovan and Pescatore[18]. […]

Series [3] deals with T2, human COX-2 (Homo sapiens, UniProt P35354).
T2 construct: purchased Cayman Chemical 700100
T2 sequence (P35354 18-604): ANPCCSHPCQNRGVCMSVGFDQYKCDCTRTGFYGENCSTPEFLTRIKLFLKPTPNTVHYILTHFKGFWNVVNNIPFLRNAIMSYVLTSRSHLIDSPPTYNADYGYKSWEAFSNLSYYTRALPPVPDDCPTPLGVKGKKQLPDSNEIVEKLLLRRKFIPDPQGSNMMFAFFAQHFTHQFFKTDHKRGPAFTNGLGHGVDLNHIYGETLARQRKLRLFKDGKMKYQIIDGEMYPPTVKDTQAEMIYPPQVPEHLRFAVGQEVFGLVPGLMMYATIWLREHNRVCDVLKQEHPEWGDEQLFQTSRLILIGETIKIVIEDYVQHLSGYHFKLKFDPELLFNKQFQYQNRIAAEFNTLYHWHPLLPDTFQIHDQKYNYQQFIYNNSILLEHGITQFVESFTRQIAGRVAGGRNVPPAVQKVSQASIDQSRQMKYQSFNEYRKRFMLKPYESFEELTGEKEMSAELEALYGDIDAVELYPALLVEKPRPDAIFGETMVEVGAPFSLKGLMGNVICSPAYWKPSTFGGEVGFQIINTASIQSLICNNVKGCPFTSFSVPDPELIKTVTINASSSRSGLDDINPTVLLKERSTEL
The experiment in a line: COX Fluorescent Inhibitor Screening Assay Kit (Cayman 700100), COX-2. In kind it is biochemical.

Details of series [4]: method as in doi:10.1002/slct.201601618, PMID 12064545. To be noted: reference substances for the HPLC logD method; cited from earlier work.
The conditions of series [5]: cited from earlier work.
The subject of series [6] is hCOX-2. To be noted: read-out: IC50 hCOX-2; cited from earlier work.
For series [7] the following is noted: rat plasma, parecoxib leading to valdecoxib, cited from earlier work.

Read-outs that look alike come from different tables or passages of the source. Where only a bound is given, the exact number is not on record here.

One may read the IC50 as the point on the concentration scale where inhibition reaches its midpoint. What is called melting point is the temperature of the solid-liquid transition. By chromatographic logD is commonly meant a lipophilicity value derived from retention on a column. Lower therefore signals a more hydrophilic compound. In turn, `NS(=O)(=O)c1ccc(-c2c(-c3ccc(F)cc3)c3cccc4ccn2c43)cc1` [2d, 1-(4-Fluorophenyl)-2-[4-(sulfamoyl)phenyl]pyrrolo[3,2,1-hi]indole] had a melting point of 258 to 259 °C. This compound registered an IC50 in series [1] of more than 100 µM. Besides, the chromatographic logD in series [2] turned out to be 4.64. Also, the “SI (selectivity index)” value in series [3] (SI = IC50 (COX-1)/IC50 (COX-2)) is recorded as more than 1124. Moreover, in series [3] (human COX-2, values marked ** : compounds were screened at a concentration of 100 µM), it took 0.089 µM to reach half-maximal inhibition (IC50).

In the case of `C[C@]12CCC(=O)C=C1CC[C@@H]1[C@@H]2[C@@H](O)C[C@@]2(C)[C@H]1CC[C@]2(O)C(=O)CO` [Hydrocortisone], the “logD7.4 of HPLC references” value in series [4] is 1.65.

In the case of `CCC(=O)NS(=O)(=O)c1ccc(-c2c(-c3ccccc3)noc2C)cc1` [Parecoxib sodium], the water solubility in series [5] is more than 50 mg/mL.

For the compound `CCC(=O)NS(=O)(=O)c1ccc(-c2c(-c3ccccc3)noc2C)cc1` [parecoxib], in series [6], the IC50 was 20 µM. Further, the “elimination half-life T1/2” value was 8.1 min in series [7] (ref 19) and 41.4 min in series [7] (ref 23).

Values taken from publication PMC6832141, “Synthesis and Cyclooxygenase Inhibition of Sulfonamide-Substituted (Dihydro)Pyrrolo[3,2,1-hi]indoles and Their Potential Prodrugs” (Molecules, 2019).
